# In PubChem BioAssay AID1918957 (Molecular Pharmacology Branch, DTP, NCI, 2023):
# Test system: NCI-H1876 complex spheroid viability
# Experiment: Anticancer human tumor NCI-H1876 cell line growth inhibition [LSD1];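 note: spheroids exposed to compounds for one week before readout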;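 for viability, T/C: 100% = DMSO vehicle-treated spheroids so lower means fewer viable cells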
# Conditions: for IC50: curve of first compound; for viability, T/C: stronger effect = lower value
# Excerpt: Multicellular complex tumor spheroid response to LSD1 Inhibitor Iadademstat in combination with a variety of drugs and investigational agents in selected tumor cell lines
# The current study was undertaken to assess response to LSD1 inhibitors in combination with standard-of-care drugs and investigational agents in solid tumor complex spheroid models as well as in the K-562 leukemia. Complex spheroids include a stromal component modeled by human endothelial cells (HUVEC) and fibroblasts modeled by human mesenchymal stem cells (MSCs). The concentration ranges selected for each drug and investigational agent were based upon clinically achievable concentrations if the clinical Cmax of the agent was known.
# Compounds. The drugs and investigational agents used in this study are listed on Table 1. All of the agents used, including staurosporine (NSC755774) and gemcitabine (NSC613327), were obtained from the Developmental Therapeutics Program, NCI. FDA-approved anticancer drugs are available from the NCI at http://dtp.nci.nih.gov/branches/dscb/oncology_drugset_explanation.html. Drugs and investigational agents were >95% pure by proton nuclear magnetic resonance (NMR) and liquid chromatography/mass spectrometry (LC/MS). Stock solutions were prepared at 400x in DMSO, stored at -70 degrees C, and diluted in fresh medium prior to their use. The final concentration of DMSO in cell culture wells never exceeded 0.25% (v/v). The FDA-approved anticancer drug set is available from the Developmental Therapeutics Program at https://dtp.cancer.gov/organization/dscb/obtaining/available_plates.htm. All drugs and investigational agents were tested over a range starting from a high concentration at or near the clinical Cmax and decreasing in half-log increments. If the clinical Cmax for an agent had not been determined, the highest concentration tested was 10 microM.
# Cell Lines. The patient-derived cancer cell (PDC) lines: 292921-168-R-J2-PDC, K24384-001-R-PDC, and 521955-158-R2-J5-PDC pancreatic carcinomas, 556581-035-R-J1 ovarian carcinoma, 324938-238-R-J1-PDC, 855422-203-R-J1-PDC and 883617-216-R-J1-PDC urothelial bladder carcinomas, 743489-274-T-PDC renal cell carcinoma, 138582-R-J1 Merkel cell tumor, K60290-347-R-J1 and K57222-313-R-J1-PDC glioblastomas, 653999-131-R-J2-PDC, LG0703-F948-PDC, and 349418-098-R-PDC non-small cell lung carcinomas, 885512-296-R-J2-PDC, 171881-019-R-J1-PDC breast carcinomas and 186277-243-T-J2-PDC and 233499-124-R-J2-PDC colon carcinomas were obtained from the NCI Patient-Derived Models Repository (PDMR, https://pdmr.cancer.gov). The established cell lines NCI/ADR-RES (RRID:CVCL_14520 and OVCAR-5 (RRID:CVCL_1628) ovarian carcinomas, 786-O (RRID:CVCL_1051) and A498 (RRID:CVCL_A498) renal cell carcinoma, NCI-H211 (ATCC, cat. CRL-5824; RRID:CVCL_1529), NCI-H196 (ATCC, cat. CRL-5823, RRID:CVCL_1509), SW 1271 (ATCC, cat. CRL-2177, RRID:CVCL_1716) and NCI-H1876 (ATCC, cat. CRL-5902, RRID:CVCL_1503) small cell lung carcinomas, MDA-MB-231 (RRID:CVCL_0062) and MDA-MB-468 (RRID:CVCL_0419)breast carcinomas (10-12). Pooled donor human umbilical vein endothelial cells (HUVEC, Lonza, cat. CC-2519) and human mesenchymal stem cells (hMSC, Lonza, cat. PT-2501) were purchased from Lonza (Walkersville, MD).
# Cell Culture. All cells were maintained in an incubator at 37 degrees C and 5% CO2 with 95% humidity. The PDC lines were cultured according to standard operating procedures established by the NCI PDMR (https://pdmr.cancer.gov). Briefly all PDCs were thawed and cultured in Matrigel-coated flasks prepared with a working solution of 1X Ham's F-12 nutrient mix, without supplementation (Invitrogen, Waltham, MA, cat. 11765054), 100 U/mL penicillin-streptomycin (Invitrogen, cat. 15140122), and 2.5% Matrigel (Corning Inc., Corning, NY, cat. 354248) for the first three passages. […]
# [1] = second compound 0.1 µM, first compound 0.00316 µM
# [2] = second compound 0.1 µM, first compound 0.01 µM
# [3] = second compound 0.1 µM, first compound 0.0316 µM
# [4] = second compound 0.1 µM, first compound 0.1 µM
# [5] = second compound 0.316 µM, first compound 0.00316 µM
# [6] = second compound 0.316 µM, first compound 0.01 µM
# [7] = second compound 0.316 µM, first compound 0.0316 µM
# [8] = second compound 0.316 µM, first compound 0.1 µM
# [9] = second compound 1 µM, first compound 0.00316 µM
# [10] = second compound 1 µM, first compound 0.01 µM
# [11] = second compound 1 µM, first compound 0.0316 µM
# [12] = second compound 1 µM, first compound 0.1 µM
# [13] = second compound 3.16 µM, first compound 0.00316 µM
# [14] = second compound 3.16 µM, first compound 0.01 µM
# [15] = second compound 3.16 µM, first compound 0.0316 µM
# [16] = second compound 3.16 µM, first compound 0.1 µM
# [17] = second compound 10 µM, first compound 0.00316 µM
# [18] = second compound 10 µM, first compound 0.01 µM
# [19] = second compound 10 µM, first compound 0.0316 µM
# [20] = second compound 10 µM, first compound 0.1 µM
smiles,measurement,setting,value
CC[C@@]1(O)C(=O)OCc2c1cc1n(c2=O)Cc2cc3c(CN(C)C)c(O)ccc3nc2-1 + NC1CC1c1ccc(-c2cccc(O)c2)cc1,IC50,second compound 0.1 µM,1.82 nM
same,IC50,second compound 0.316 µM,1.8 nM
same,IC50,second compound 1 µM,1.81 nM
same,IC50,second compound 3.16 µM,1.73 nM
same,IC50,second compound 10 µM,1.69 nM
same,"viability, T/C","second compound 0.1 µM, first compound 0.000316 µM",102%
same,"viability, T/C","second compound 0.1 µM, first compound 0.001 µM",87.4%
same,"viability, T/C",[1],15.2%
same,"viability, T/C",[2],10.4%
same,"viability, T/C",[3],6.25%
same,"viability, T/C",[4],4.62%
same,"viability, T/C","second compound 0.316 µM, first compound 0.000316 µM",102%
same,"viability, T/C","second compound 0.316 µM, first compound 0.001 µM",86.2%
same,"viability, T/C",[5],15.2%
same,"viability, T/C",[6],9.15%
same,"viability, T/C",[7],6.84%
same,"viability, T/C",[8],4.48%
same,"viability, T/C","second compound 1 µM, first compound 0.000316 µM",104%
same,"viability, T/C","second compound 1 µM, first compound 0.001 µM",87%
same,"viability, T/C",[9],15.2%
same,"viability, T/C",[10],9.89%
same,"viability, T/C",[11],6.39%
same,"viability, T/C",[12],4.42%
same,"viability, T/C","second compound 3.16 µM, first compound 0.000316 µM",100%
same,"viability, T/C","second compound 3.16 µM, first compound 0.001 µM",81.5%
same,"viability, T/C",[13],15.6%
same,"viability, T/C",[14],10.3%
same,"viability, T/C",[15],7.55%
same,"viability, T/C",[16],4.94%
same,"viability, T/C","second compound 10 µM, first compound 0.000316 µM",97.8%
same,"viability, T/C","second compound 10 µM, first compound 0.001 µM",76.8%
same,"viability, T/C",[17],17.8%
same,"viability, T/C",[18],15.2%
same,"viability, T/C",[19],8.77%
same,"viability, T/C",[20],6.56%
COc1cc(C2c3cc4c(cc3C(OC3OC5COC(C)OC5C(O)C3O)C3COC(=O)C23)OCO4)cc(OC)c1O (stereo not given) + NC1CC1c1ccc(-c2cccc(O)c2)cc1,IC50,second compound 0.1 µM,36.6 nM
same,IC50,second compound 0.316 µM,34.6 nM
same,IC50,second compound 1 µM,35.2 nM
same,IC50,second compound 3.16 µM,40.4 nM
same,IC50,second compound 10 µM,35.3 nM
same,"viability, T/C","second compound 0.1 µM, first compound 0.00949 µM",87.6%
same,"viability, T/C","second compound 0.1 µM, first compound 0.03 µM",56.3%
same,"viability, T/C","second compound 0.1 µM, first compound 0.0949 µM",20.1%
same,"viability, T/C","second compound 0.1 µM, first compound 0.3 µM",11.4%
same,"viability, T/C","second compound 0.1 µM, first compound 0.949 µM",8.84%
same,"viability, T/C","second compound 0.1 µM, first compound 3 µM",10.2%
same,"viability, T/C","second compound 0.316 µM, first compound 0.00949 µM",84.4%
same,"viability, T/C","second compound 0.316 µM, first compound 0.03 µM",54.4%
same,"viability, T/C","second compound 0.316 µM, first compound 0.0949 µM",18.6%
same,"viability, T/C","second compound 0.316 µM, first compound 0.3 µM",10.9%
same,"viability, T/C","second compound 0.316 µM, first compound 0.949 µM",9.79%
same,"viability, T/C","second compound 0.316 µM, first compound 3 µM",8.38%
same,"viability, T/C","second compound 1 µM, first compound 0.00949 µM",92%
same,"viability, T/C","second compound 1 µM, first compound 0.03 µM",55.2%
same,"viability, T/C","second compound 1 µM, first compound 0.0949 µM",18%
same,"viability, T/C","second compound 1 µM, first compound 0.3 µM",11.6%
same,"viability, T/C","second compound 1 µM, first compound 0.949 µM",9.23%
same,"viability, T/C","second compound 1 µM, first compound 3 µM",8.55%
same,"viability, T/C","second compound 3.16 µM, first compound 0.00949 µM",93.9%
same,"viability, T/C","second compound 3.16 µM, first compound 0.03 µM",60.5%
same,"viability, T/C","second compound 3.16 µM, first compound 0.0949 µM",19.9%
same,"viability, T/C","second compound 3.16 µM, first compound 0.3 µM",13%
same,"viability, T/C","second compound 3.16 µM, first compound 0.949 µM",9%
same,"viability, T/C","second compound 3.16 µM, first compound 3 µM",8.78%
same,"viability, T/C","second compound 10 µM, first compound 0.00949 µM",85.3%
same,"viability, T/C","second compound 10 µM, first compound 0.03 µM",54.9%
same,"viability, T/C","second compound 10 µM, first compound 0.0949 µM",20.7%
same,"viability, T/C","second compound 10 µM, first compound 0.3 µM",13.8%
same,"viability, T/C","second compound 10 µM, first compound 0.949 µM",11%
same,"viability, T/C","second compound 10 µM, first compound 3 µM",9.82%
Nc1ncn(C2CC(O)C(CO)O2)c(=O)n1 (stereo not given) + NC1CC1c1ccc(-c2cccc(O)c2)cc1,IC50,second compound 0.1 µM,> 1000 nM
same,IC50,second compound 0.316 µM,> 1000 nM
same,IC50,second compound 1 µM,> 1000 nM
same,IC50,second compound 3.16 µM,> 1000 nM
same,IC50,second compound 10 µM,> 1000 nM
same,"viability, T/C",[1],109%
same,"viability, T/C",[2],103%
same,"viability, T/C",[3],105%
same,"viability, T/C",[4],98.6%
same,"viability, T/C","second compound 0.1 µM, first compound 0.316 µM",91%
same,"viability, T/C","second compound 0.1 µM, first compound 1 µM",101%
same,"viability, T/C",[5],113%
same,"viability, T/C",[6],110%
same,"viability, T/C",[7],105%
same,"viability, T/C",[8],99%
same,"viability, T/C","second compound 0.316 µM, first compound 0.316 µM",96%
same,"viability, T/C","second compound 0.316 µM, first compound 1 µM",94.3%
same,"viability, T/C",[9],106%
same,"viability, T/C",[10],114%
same,"viability, T/C",[11],106%
same,"viability, T/C",[12],102%
same,"viability, T/C","second compound 1 µM, first compound 0.316 µM",104%
same,"viability, T/C","second compound 1 µM, first compound 1 µM",101%
same,"viability, T/C",[13],106%
same,"viability, T/C",[14],113%
same,"viability, T/C",[15],107%
same,"viability, T/C",[16],99.1%
same,"viability, T/C","second compound 3.16 µM, first compound 0.316 µM",94.3%
same,"viability, T/C","second compound 3.16 µM, first compound 1 µM",89.8%
same,"viability, T/C",[17],109%
same,"viability, T/C",[18],107%
same,"viability, T/C",[19],103%
same,"viability, T/C",[20],108%
same,"viability, T/C","second compound 10 µM, first compound 0.316 µM",93.4%
same,"viability, T/C","second compound 10 µM, first compound 1 µM",92.1%
